Results as given in patent US20080085855A1, “Perivascular wraps” (Angiotech International AG, priority 2002, published 2008).

Tests used:
intimal hyperplasia [1] = experiment: Rat balloon injury carotid artery model, paclitaxel containing mesh; type: in vivo; conditions: 1×1 cm paclitaxel-containing mesh (345 μg paclitaxel in 50:50 PLG coating on 10:90 PLG mesh), perivascular, 14 days after balloon injury
Protocol: Wistar rats weighing 400-500 g were anesthetized with 1.5% halothane in oxygen and the left external carotid artery was exposed. An A 2 French Fogarty balloon embolectomy catheter (Baxter, Irvine, Calif.) was advanced through an arteriotomy in the external carotid artery down the left common carotid artery to the aorta. The balloon was inflated with enough saline to generate slight resistance (approximately 0.02 ml) and it was withdrawn with a twisting motion to the carotid bifurcation. The balloon was then deflated and the procedure repeated twice more. This technique produced distension of the arterial wall and denudation of the endothelium. The external carotid artery was ligated after removal of the catheter. The right common carotid artery was not injured and was used as a control.
Immediately after injury of the left common carotid artery, a 1 cm long distal segment of the artery was exposed and treated with a 1×1 cm paclitaxel-containing mesh. The wound was then closed the animals were kept for 14 days.
At the time of sacrifice, the animals were euthanized with carbon dioxide and pressure perfused at 100 mmHg with 10% phosphate buffered formaldehyde for 15 minutes. Both carotid arteries were harvested and left overnight in fixative. The fixed arteries were processed and embedded in paraffin wax. […]

intimal hyperplasia [2] = experiment: Sheep carotid artery bypass graft (ePTFE) model, paclitaxel containing mesh; conditions: for Percent Change in Maximal Intimal Thickness / Percent Change in % Stenosis / Percent Change in Intimal Area: vs zero-dose mesh;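 on all read-outs here: sheep with ePTFE carotid bypass grafts, PLG mesh wrapped at the distal anastomosis, histology of fixed graft and artery sections about 56 days after implantation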
Protocol: The left and right carotid arteries of anesthetized sheep were exposed by sharp dissection. A tunnel was formed from one carotid artery to the other to accommodate the ePTFE graft. The ePTFE graft was tunneled and trimmed for appropriate length and configuration. Using standard vascular technique, the ePTFE graft was anastomosed end-to-side with running 6-0 polypropylene suture. The angle of the junction between graft and native vessel was approximately 45°. The length of the implanted graft ranged from 9.5-15 cm (average 11 cm).
Paclitaxel was incorporated into the 2 cm×5 cm PLG mesh in the following doses and animal test groups: Group 1, 0 mg; Group 2, 0.6 mg; Group 3, 1.8 mg; and Group 4, 3.0 mg. The mesh was placed at the distal end of the graft at the anastomosis site. To place the mesh, the long side was pulled under the artery and up around either side of the distal end of the graft. One edge was positioned as close to the heel of the anastomosis as possible. The top edges of the mesh were sewn together with one suture on either side of the graft so that no gaps were left in the circumferential direction. One suture was placed at the proximal end and the other at the distal end of the mesh, and sewn to nearby connective tissue to prevent slippage of the mesh away from the anastomosis (see FIG. 6). The surgical sites were closed in layers with running absorbable sutures. Standard antibiotics and analgesics were administered after surgery for several days as required.
At approximately 56 days post-graft implant, animals were anesthetized. Contrast media was injected and angiograms performed of the distal graft and artery at the distal anastomosis. Immediately prior to euthanasia, the animals received heparin (150 U/kg, IV) and immediately after euthanasia, the ePTFE graft was rinsed in situ with lactated Ringers solution and perfusion-fixed in situ with 10% neutral buffered formalin (NBF). The specimens were excised en bloc and allowed to immersion fix in 10% NBF at least 24 hours prior to histological processing.
The fixed specimens were trimmed and mapped accurately for corresponding cross sectional location in reference to the ePTFE graft configuration. […] A total of nine sections were cut at the distal end of the graft: two cut perpendicular to the artery on either side of the anastomosis (A1 and A5), one perpendicular to the artery through the “toe” of the anastomosis (A2), one or two cut through the floor of the anastomosis adjacent to the “toe” (A3 and A4), three cut perpendicular to the graft at its distal end, and one through the center of the graft. Adjacent sections were cut at approximately 3 mm intervals. The specimens were paraffin-embedded, cross-sectioned, and four sets of slides made, two stained with hematoxylin and eosin (H&E), and one each stained with Masson's trichrome and Verhoeff Van Gieson (VVG). These stains were selected for their ability to show tissue cellularity (H&E), collagen, smooth muscle and fibrin (Masson's Trichrome), and elastin (VVG).
The morphometric analysis system consists of an Olympus BX40 microscope, Optronics Image Sensor DEI-750, Sony HR Trinitron monitor, and PC computer equipped with Media Cybernetics Image-Pro Plus software v.

[3] = Dose 0.6 (mg in PLG mesh, Group 2), Graft Section 6, approx. 56 days
[4] = Dose 0.6 (mg in PLG mesh, Group 2), Graft Section 7, approx. 56 days
[5] = Dose 0.6 (mg in PLG mesh, Group 2), Graft Section 8, approx. 56 days
[6] = Dose 1.8 (mg in PLG mesh, Group 3), Graft Section 6, approx. 56 days
[7] = Dose 1.8 (mg in PLG mesh, Group 3), Graft Section 7, approx. 56 days
[8] = Dose 1.8 (mg in PLG mesh, Group 3), Graft Section 8, approx. 56 days
[9] = Dose 3.0 (mg in PLG mesh, Group 4), Graft Section 6, approx. 56 days
[10] = Dose 3.0 (mg in PLG mesh, Group 4), Graft Section 7, approx. 56 days
[11] = Dose 3.0 (mg in PLG mesh, Group 4), Graft Section 8, approx. 56 days

CC(=O)O[C@H]1C(=O)[C@@]2(C)[C@H]([C@H](OC(=O)c3ccccc3)[C@]3(O)C[C@H](OC(=O)[C@H](O)[C@@H](NC(=O)c4ccccc4)c4ccccc4)C(C)=C1C3(C)C)[C@]1(OC(C)=O)CO[C@@H]1C[C@@H]2O [Paclitaxel, paclitaxel]
intimal hyperplasia (histology, FIGS. 3-5) (intimal hyperplasia [1]): dramatic reduction in intimal hyperplasia
Percent Change in Maximal Intimal Thickness (intimal hyperplasia [2]; Dose 0.6 (mg in 2 cm×5 cm PLG mesh, Group 2), Graft "Toe" Section 2, approx. 56 days): −5%
Percent Change in % Stenosis (intimal hyperplasia [2]; [3]): −59%^
Percent Change in Intimal Area (intimal hyperplasia [2]; [3]): −62%^
Percent Change in Maximal Intimal Thickness (intimal hyperplasia [2]; [3]): −71%^2
Percent Change in % Stenosis (intimal hyperplasia [2]; [4]): −66%^2
Percent Change in Intimal Area (intimal hyperplasia [2]; [4]): −67%^2
Percent Change in Maximal Intimal Thickness (intimal hyperplasia [2]; [4]): −65%
Percent Change in % Stenosis (intimal hyperplasia [2]; [5]): −75%^2
Percent Change in Intimal Area (intimal hyperplasia [2]; [5]): −77%
Percent Change in Maximal Intimal Thickness (intimal hyperplasia [2]; [5]): −59%
Percent Change in Maximal Intimal Thickness (intimal hyperplasia [2]; Dose 1.8 (mg in PLG mesh, Group 3), Graft "Toe" Section 2, approx. 56 days): −28%
Percent Change in % Stenosis (intimal hyperplasia [2]; [6]): −84%^2
Percent Change in Intimal Area (intimal hyperplasia [2]; [6]): −85%^2
Percent Change in Maximal Intimal Thickness (intimal hyperplasia [2]; [6]): −77%^2
Percent Change in % Stenosis (intimal hyperplasia [2]; [7]): −85%^2
Percent Change in Intimal Area (intimal hyperplasia [2]; [7]): −85%^2
Percent Change in Maximal Intimal Thickness (intimal hyperplasia [2]; [7]): −71%^2
Percent Change in % Stenosis (intimal hyperplasia [2]; [8]): −75%^2
Percent Change in Intimal Area (intimal hyperplasia [2]; [8]): −76%
Percent Change in Maximal Intimal Thickness (intimal hyperplasia [2]; [8]): −63%
Percent Change in Maximal Intimal Thickness (intimal hyperplasia [2]; Dose 3.0 (mg in PLG mesh, Group 4), Graft "Toe" Section 2, approx. 56 days): −34%
Percent Change in % Stenosis (intimal hyperplasia [2]; [9]): −81%^2
Percent Change in Intimal Area (intimal hyperplasia [2]; [9]): −82%^2
Percent Change in Maximal Intimal Thickness (intimal hyperplasia [2]; [9]): −74%^2
Percent Change in % Stenosis (intimal hyperplasia [2]; [10]): −79%^2
Percent Change in Intimal Area (intimal hyperplasia [2]; [10]): −80%^2
Percent Change in Maximal Intimal Thickness (intimal hyperplasia [2]; [10]): −69%
Percent Change in % Stenosis (intimal hyperplasia [2]; [11]): −86%^
Percent Change in Intimal Area (intimal hyperplasia [2]; [11]): −86%
Percent Change in Maximal Intimal Thickness (intimal hyperplasia [2]; [11]): −83%^2
MIT (maximal neointimal thickness), group average ±SD (intimal hyperplasia [2]; Section 2 ("toe" section), high dose (3.0 mg), approx. 56 days): 0.54±0.23 mm
MIT less than controls (intimal hyperplasia [2]; Section 2 ("toe" section), high dose (3.0 mg), not statistically significant (p>0.05)): 34%
MIT (maximal neointimal thickness), group average ±SD (intimal hyperplasia [2]; Section 2 ("toe" section), low dose (0.6 mg), approx. 56 days): 0.78±0.30 mm
MIT less than controls (intimal hyperplasia [2]; Section 2 ("toe" section), low dose (0.6 mg), not statistically significant (p>0.05)): 5%
MIT (maximal neointimal thickness), group average ±SD (intimal hyperplasia [2]; Section 2 ("toe" section), mid dose (1.8 mg), approx. 56 days): 0.59±0.14 mm
MIT less than controls (intimal hyperplasia [2]; Section 2 ("toe" section), mid dose (1.8 mg), not statistically significant (p>0.05)): 28%
mechanical integrity of the anastomosis (leakage) (intimal hyperplasia [2]; dose range tested (0.6-3.0 mg in mesh)): does not affect the mechanical integrity of the anastomosis
Intraluminal endothelialization (intimal hyperplasia [2]; doses tested (0.6-3.0 mg in mesh)): not affected
lesions causing luminal narrowing at the distal end of the graft (intimal hyperplasia [2]; lowest paclitaxel dose, 0.6 mg): marked and signifimayt reduction
reduction in stenosis (intimal hyperplasia [2]; paclitaxel groups (0.6, 1.8, 3.0 mg), sections 6, 7, 8, 7 of 9 values significantly lower than controls (p≦0.05)): 70-80%
IA (neointimal area) reduced (intimal hyperplasia [2]; paclitaxel groups (0.6, 1.8, 3.0 mg), sections 6, 7, 8, vs control group): 70-80%
MIT (maximal neointimal thickness), group average ±SD (intimal hyperplasia [2]; section 6 (first full cross section of graft adjacent to the distal anastomosis), low dose (0.6 mg), p<0.05): 0.38±0.12 mm
MIT (maximal neointimal thickness), group average ±SD (intimal hyperplasia [2]; section 6, high dose (3.0 mg), p<0.05): 0.34±0.20 mm
MIT (maximal neointimal thickness), group average ±SD (intimal hyperplasia [2]; section 6, medium dose (1.8 mg), p<0.05): 0.31±0.29 mm
MIT less than controls (intimal hyperplasia [2]; sections 7 and 8, all the paclitaxel groups (0.6, 1.8, 3.0 mg)): approximately 70%
